What was measured:
[1] = In vitro metabolic stability in mouse liver microsomes; assay type: in vitro ADME; conditions: for CLint (L/h/kg) Mouse: Table S5; for CLint_u (L/h/kg) Mouse: Table S5, CLint/fu
Experimental: (§1) Isolated mouse (BD Gentest, Bedford, MA) and human liver microsomes (XenoTech, Kansas City, KS) ([Plant, 2004]) were added at a final concentration of 0.25 mg/ml to a solution containing 40 mM dibasic potassium phosphate and 10 mM monobasic potassium phosphate. Stock solutions of compounds at 5 mM were prepared in 100% DMSO. A 50:50 quenching solution of acetonitrile (ACN) and methanol (MeOH) was prepared. An NADPH solution was prepared at 10 mM. The preparations containing the microsomes were added to each well of the incubation plate (450 µl), which was then heated to 37°C for 10 min. The compounds were added to the respective wells of the test plate (2 µl). Then, 300 µl of the microsome preparation was added to each well of the test plate. The test plate was heated under gentle rotation for 5 min at 37°C. Next, 90 µl of the mixture contained in the test plate was added to the incubation plate, making a final volume of 540 µl. Samples were collected at the following incubation times: 0, 5, 10, 15, 20, and 30 min. To the 0 min sample plate, quenching solution (180 µl), NADPH (6 µl), and the incubation plate mixture (54 µl) were added to each well. The sample plate was then sealed, homogenized, and stored at 4°C. Then, 54 µl of the NADPH solution was added to the incubation plate, which was homogenized. Before the collection of each sample at the established times, 45 µl of the quenching solution was added to each well of the corresponding sample plates. After reaching the incubation times, 60 µl of the mixture contained in the incubation plate was added to the corresponding sample plates. The sample plates were then sealed and stored at 4°C. After the collection of the last sample (30 min), all sample plates were centrifuged at 3,800 rpm for 30 min. The supernatant from each well was collected and transferred to clean plates for mass spectrometry. Five to 10 µl of each sample was injected into an AB Sciex Triple Quad 5500 LC-MS/MS instrument.
(§2) For the biotransformation experiments and analysis of metabolites in microsomes, an Ultra-High-Pressure Liquid Chromatography instrument (UHPLC, Thermo Accela, Waltham, MA) ([Spaggiari et al., 2014]) connected to an automatic sample injector and a 1250 series pump was used. The UHPLC system was connected to a Thermo Fisher (Waltham, MA) LTQ Orbitrap mass spectrometer. For all other analyses, an AB Sciex Triple Quad 5500 coupled to a UHPLC equipped with a UV 1290 diode detector (Agilent Technologies, Santa Clara, CA) and a CTC PAL self-collecting system (LEAP Technologies, Carrboro, NC) was used. Q1 MS positive ion mode (300–500 Da) was used to detect the ions of the parent compounds. The UV detector was operated in spectral mode (250–280 nm). A Hypersil Gold C18 (2.1 mm × 100 mm, 1.9 µm, Thermo Fisher) HPLC column was used. The mobile phases were solvent A (0.1% formic acid in water) and solvent B (0.1% formic acid in ACN). The flow was adjusted to 0.55 ml/min, and the injection volume was adjusted to […]. The gradient started with 1% solvent B for 0.4 min, reached 40% (solvent B) in 2.3 min and 95% (solvent B) in 0.67 min, was maintained for 0.5 min, and returned to the initial condition of 1%. This condition was maintained for 1 min before injection of the next sample. The peak area ratio (peak area of the test compounds/peak area of the control compounds) was converted to the percentage of remaining compound, with the 0 min time point ratio set to 100%. T½ and CLint were calculated from the percentage of remaining compound versus the incubation time. From the resulting function, the slope (k) was determined. The equations T1/2 (min) = ln(2)/k and CLint in vitro (μL/min/mg) = k*1000/0.25 were used to determine T½ and CLint.

[2] = Fraction unbound by equilibrium dialysis; assay type: in vitro ADME; conditions: Table S5; fraction unbound
Experimental: The fraction unbound (fu) ([Masimirembwa et al., 2003]) of the test compounds was determined after incubation with different media, namely, plasma, microsomes, and buffer with 10% FCS. Equilibrium dialysis was performed in a 96-well plate (HT-Dialysis, Gales Ferry, CT) in which each well was divided by a semipermeable membrane (12–14 kDa cutoff). The test compounds diluted in either plasma, microsome suspension, or buffer were added to one side of the membrane. Potassium phosphate buffer (50 mM, pH 7.4) was added to the other side of the membrane. A standard curve was used to calculate the compound concentration (fu) on each side of the membrane. Stock solutions of each compound were prepared in 100% DMSO to obtain a final concentration of 1 mM. The following compound concentrations were used: 1, 2, 20, 200, 2,000 and 5,000 nM. To 500 μl of medium, 0.5 μl of the compound stock solution was added, and this was applied to one side of the well. Each compound was evaluated in triplicate. Next, the plate was assembled, sealed, and incubated at 37°C under rotation (150 rpm) for 4 h. After the incubation period, the plates were subjected to LC-MS/MS.

[3] = In vitro metabolic stability in human liver microsomes; assay type: in vitro ADME; conditions: for CLint (L/h/kg) Human: Table S5; for CLint_u (L/h/kg) Human: Table S5, CLint/fu
Experimental: as §1, §2

cruzain = molecular target: T1, cruzain (Trypanosoma cruzi, UniProt P25779); test: Cruzain enzyme inhibition assay (cleavage of fluorogenic substrate Z-FR-AMC); assay type: biochemical; conditions: for inhibition at 100 µM: compound 100 µM, mean of three measures
T1 construct: made in house; host or cells: Escherichia coli (strain M15)
T1 sequence (P25779 123-337 limits assumed): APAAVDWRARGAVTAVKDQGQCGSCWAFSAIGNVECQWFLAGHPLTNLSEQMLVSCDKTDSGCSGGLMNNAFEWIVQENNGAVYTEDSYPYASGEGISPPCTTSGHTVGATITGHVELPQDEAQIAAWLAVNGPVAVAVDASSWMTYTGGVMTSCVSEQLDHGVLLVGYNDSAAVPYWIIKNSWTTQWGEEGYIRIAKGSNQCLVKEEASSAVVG
Experimental: Pro-cruzain truncated at the C-terminus was expressed and purified using a previously described protocol ([Ferreira et al., 2019]). Escherichia coli (strain M15) cultures were grown overnight at 37°C and 200 rpm in Luria Bertani (LB) medium supplemented with ampicillin (100 μg/ml) and kanamycin (50 μg/ml). Next, the cultures were diluted 10-fold in fresh LB medium supplemented with 0.5 M NaCl, 0.2% glucose, 1 mM betaine, 0.5 M sorbitol, 100 μg/ml ampicillin, and 50 μg/ml kanamycin and incubated at 37°C and 200 rpm. At an optical density (OD600) of 0.9, the cultures were incubated at 47°C for 20 min to promote the expression of chaperones. Then, the expression of cruzain was induced by adding isopropyl β-D-thiogalactopyranoside (IPTG) to a final concentration of 0.2 mM, which was followed by overnight incubation of the cultures at 20°C and 200 rpm. Next, the cultures were centrifuged (5,000 rpm, 30 min, 4°C), and the cells were suspended in 50 ml of lysis buffer (300 mM NaCl, 50 mM Tris-HCl, and 1.6 mg/ml lysozyme, pH 8.0) per liter of culture and lysed by sonication (12 cycles of 30 s). This cell lysate was centrifuged (9,000 rpm, 30 min, 4°C), and the supernatant was collected. Cruzain was precipitated by incubation with 35% ammonium sulfate (2 h), and this suspension was centrifuged at 9,000 rpm for 30 min at 4°C. The precipitated cruzain was resuspended in lysis buffer, and the sample was dialyzed to eliminate ammonium sulfate. The soluble fraction of the dialysate was loaded on a Ni−NTA column (Qiagen, Hilden, Germany), and the contaminants were washed using washing buffer (300 mM NaCl, 50 mM Tris-HCl, and 10 mM imidazole, pH 8.0). Cruzain was eluted by applying an increasing imidazole gradient: 25, 50, 75, 100, and 250 mM. The fractions containing cruzain were pooled together and dialyzed against 1.5 L of 0.1 M acetate buffer, pH 5.5, and then concentrated to 0.5 mg/ml. Pro-cruzain was activated by incubation with activation buffer (100 mM sodium acetate, pH 5.5, 10 mM EDTA, 5 mM DTT, and 1 M NaCl) at 37°C. […] After activation, the enzyme was diluted 20-fold in binding buffer (20 mM sodium phosphate and 150 mM NaCl, pH 7.2) and added to thiopropyl Sepharose 6B resin (GE Healthcare Life Sciences, Pittsburgh, PA). After overnight incubation at 4°C, the resin was loaded on a column, and cruzain was eluted with binding buffer supplemented with 20 mM DTT. Fractions containing cruzain were pooled together and stored in 0.1 M sodium acetate, pH 5.5, at −80°C.
Cruzain activity was followed by monitoring the cleavage of the fluorogenic substrate Z-Phe-Arg-aminomethyl coumarin (Z-FR-AMC), as previously described ([Ferreira et al., 2019]), using 96-well flat-bottom black plates and wavelengths of 355 nm for excitation and 460 nm for emission. All cruzain assays were performed in 0.1 M sodium acetate buffer with 5 mM dithiothreitol (DTT) and 0.01% Triton X-100, pH 5.5. […] The cleavage of the substrate was monitored for 5 min, and the activity was calculated based on the initial reaction rates compared with the rate of a DMSO control at 30°C. The IC50 values were independently calculated by considering the rate measurements for at least six inhibitor concentrations, each evaluated in triplicate. To determine the mechanism of cruzain inhibition, eight concentrations of the substrate Z-FR-AMC and four concentrations of the inhibitor were employed, each in triplicate. Kinetic parameters were determined using the SigmaPlot (Systat Software Inc., Erkrath, Germany) enzyme kinetics module. Compounds were tested in two or three independent experiments. All enzyme assays were performed using varying Triton X-100 concentrations (0, 0.01, and 0.1%) ([Ferreira et al., 2009]). Compound concentrations were 100 μM in the single-dose percentage inhibition assays.

| SMILES | CLint (L/h/kg) Mouse [1] [L/h/kg] | CLint_u (L/h/kg) Mouse [1] | fu [2] | CLint (L/h/kg) Human [3] [L/h/kg] | CLint_u (L/h/kg) Human [3] | inhibition at 100 µM (cruzain) [%] | IC50 (cruzain; 1.5 nM cruzain, 5.0 µM Z-FR-AMC, mean ± SD of 2–3 assays, read-out: IC50 (µM) against cruzain) [µM] |
| --- | --- | --- | --- | --- | --- | --- | --- |
| O=Cc1c(OCC(=O)NCCc2nc3ccccc3[nH]2)ccc2ccccc12 [Compound 45] | 669.00 | 1,276.72 L/h/kg | 0.52 | 37.30 | 71.18 L/h/kg | – | – |
| Cc1cc(C)c(C#N)c(SCC(=O)NCCc2c[nH]c3ccccc23)n1 [Compound 60] | 485.00 | 608.53 L/h/kg | 0.79 | 155.00 | 194.48 L/h/kg | – | – |
| Cc1ccc2[nH]c(CCNC(=O)COc3ccc4ccccc4c3Br)nc2c1 [Compound 54] | 528.00 | – | 0.05 | 65.00 | 1,334.7 L/h/kg | – | – |
| COc1cc(OCC(=O)NCCc2nc3ccccc3[nH]2)ccc1[N+](=O)[O-] [Compound 16] | – | – | – | – | – | 62 | – |
| COc1ccc2[nH]c(CCNC(=O)COc3ccc4ccccc4c3Br)nc2c1 [Compound 53] | 500.00 | 2,793.30 L/h/kg | 0.18 | 72.40 | 404.47 L/h/kg | – | – |
| O=C(CCOc1ccccc1)NCCc1c[nH]c2ccccc12 [Compound 58] | 536.00 | 641.15 L/h/kg | 0.84 | 14.20 | 16.99 L/h/kg | – | – |
| O=C(COc1ccc2ccccc2c1Br)NCCc1nc2cc(Cl)ccc2[nH]1 [Compound 52] | 407.00 | – | 0.02 | 41.60 | 2,122.45 L/h/kg | – | – |
| COC(=O)c1cccc2cc(OCC(=O)NCCc3nc4ccccc4[nH]3)ccc12 [Compound 14] | – | – | – | – | – | 92 | 8.3 ± 2.1 |

Results, then the compound that gave them:

| CLint (L/h/kg) Mouse [1] [L/h/kg] | CLint_u (L/h/kg) Mouse [1] | fu [2] | CLint (L/h/kg) Human [3] [L/h/kg] | CLint_u (L/h/kg) Human [3] | inhibition at 100 µM (cruzain) [%] | IC50 (cruzain; 1.5 nM cruzain, 5.0 µM Z-FR-AMC, mean ± SD of 2–3 assays, read-out: IC50 (µM) against cruzain) [µM] | SMILES |
| --- | --- | --- | --- | --- | --- | --- | --- |
| 655.00 | 939.71 L/h/kg | 0.72 | – | 35.00 L/h/kg | – | – | O=C(COc1ccc2ccccc2c1O)NCCc1nc2ccccc2[nH]1 [Compound 47] |
| 504.00 | 1,495.55 L/h/kg | 0.34 | 23.80 | 70.62 L/h/kg | – | – | O=C(COc1cccc2ccccc12)NCCc1nc2ccccc2[nH]1 [Compound 44] |
| 50.10 | 2,609.38 L/h/kg | 0.02 | 40.40 | 2,104.17 L/h/kg | – | – | COc1ccc(C(=O)Cn2c(CCNC(=O)COc3ccc4ccccc4c3Br)nc3ccccc32)cc1 [Compound 63] |
| 790.00 | 1,292.96 L/h/kg | 0.61 | 23.60 | 38.63 L/h/kg | – | – | Cc1ccccc1OCC(=O)NCCc1c[nH]c2ccccc12 [Compound 50] |
| 306.00 | 325.19 L/h/kg | 0.94 | 9.38 | 9.97 L/h/kg | – | – | CC(=O)NCCc1nc2ccccc2n1CCOc1ccccc1Br [Compound 57] |
| 757.00 | 981.84 L/h/kg | 0.77 | 24.70 | 32.04 L/h/kg | – | – | O=C(COc1ccc2ccccc2c1CO)NCCc1nc2ccccc2[nH]1 [Compound 46] |
| 683.00 | 1,082.41 L/h/kg | 0.63 | 39.40 | 62.44 L/h/kg | – | – | O=C(COc1ccccc1I)NCCc1nc2ccccc2[nH]1 [Compound 41] |

Source: paper PMC8767159, “Multiparameter Optimization of Trypanocidal Cruzain Inhibitors With In Vivo Activity and Favorable Pharmacokinetics” (Frontiers in Pharmacology, 2022)
